For six molecules, IC50 results are on record in US8436003B2, “Substituted imidazo- and triazolopyrimidines, imidazo- and pyrazolopyrazines and imidazotriazines” (Bayer Intellectual Property GmbH, priority 2008, dated 2013).

The target of the assay is T1, GSK3β (Homo sapiens, UniProt P49841).
T1 construct: purchased Upstate 14-306
T1 sequence (P49841 whole entry): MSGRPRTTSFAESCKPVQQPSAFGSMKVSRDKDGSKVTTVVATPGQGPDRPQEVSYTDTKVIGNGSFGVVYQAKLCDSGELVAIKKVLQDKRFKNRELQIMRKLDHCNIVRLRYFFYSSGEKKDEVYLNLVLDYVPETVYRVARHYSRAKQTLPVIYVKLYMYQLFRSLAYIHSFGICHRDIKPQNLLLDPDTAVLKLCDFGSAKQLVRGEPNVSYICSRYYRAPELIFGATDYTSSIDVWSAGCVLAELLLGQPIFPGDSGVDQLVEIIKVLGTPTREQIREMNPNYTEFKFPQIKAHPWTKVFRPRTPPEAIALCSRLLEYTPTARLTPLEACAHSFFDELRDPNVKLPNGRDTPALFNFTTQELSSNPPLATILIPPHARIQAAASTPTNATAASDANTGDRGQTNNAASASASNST
The experiment in a line: In vitro biochemical GSK3β inhibition assay (coupled pyruvate kinase/lactate dehydrogenase, NADH fluorescence). Conditions: 5 nM GSK3β, 40 μM GSK3β substrate GSM, 50 μM ATP, 30° C. for 2 hours. The method, then:
The inhibitory activity of active substances is determined in a biochemical assay. The ingredients required for this purpose are mixed in a black 384-well microtitre plate with transparent base (from Greiner, catalogue number 781092). The requirements in this connection for each well of the 384-well microtitre plate are 5 nM GSK3β (from Upstate, catalogue number 14-306), 40 μM GSK3β substrate GSM (sequence H-RRRPASVPPSPSLSRHS-(pS)-HQRR, from Upstate, catalogue number 2-533), 30 μM nicotinamide adenine dinucleotide NADH (Roche Diagnostics, catalogue number 10107735), 50 μM adenosine triphosphate ATP (from Sigma, catalogue number A7966), 2 mM phosphoenolpyruvate (from Roche, catalogue number 128112), and also about 1 U/ml of pyruvate kinase and about 1 U/ml of lactate dehydrogenase, which are present together in a stock formulation (from Roche, catalogue number 10737291001, suspension with about 450 U/ml of pyruvate kinase activity, about 450 U/ml of lactate dehydrogenase activity in […] ammonium sulphate solution pH 6), where 1 unit pyruvate kinase converts, at pH 7.6 and 37° C., 1 μmol of phosphoenolpyruvate into pyruvate per minute, and where 1 unit of lactate dehydrogenase reduces, at pH 7.5 and 37° C., 1 μmol of pyruvate to lactate per minute. The required reaction buffer in which the biochemical reaction takes place consists of 50 mM Trizma hydrochloride Tris-HCl pH: 7.5 (from Sigma, catalogue number T3253), 5 mM magnesium chloride MgCl2 (from Sigma, catalogue number M8266), 0.2 mM DL-dithiothreitol DTT (from Sigma, catalogue number D9779), 2 mM ethylenediaminetetraacetic acid EDTA (from Sigma, catalogue number E6758), 0.01% Triton X-100 (from Sigma, catalogue number T8787) and 0.05% bovine serum albumin BSA (from Sigma, catalogue number B4287).
Active substances are dissolved in dimethyl sulfoxide DMSO (from Sigma, catalog number D8418) in a concentration of 10 mM. Active substances are added in serial concentrations of 10 μM, 1 μM, 0.1 μM, 0.01 μM, 0.001 μM, 0.0001 μM, 0.00001 μM, 0.000001 μM to the mixtures of the biochemical reaction. As control, dimethyl sulfoxide is added instead of substance in a final concentration of 0.1%.
The reaction is incubated at 30° C. for 2 hours and then the resulting fluorescence is measured in a Tecan Safire-XFLUOR4 instrument, version V4.50 (serial number 12901300283) with the specifications: measurement mode—fluorescence measured from below, extinction wavelength 340 nm, emission wavelength 465 nm, slit width extinction 5 nm, slit width emission 5 nm, gain mode 120, delay 0 μs, number of light flashes per measurement 3, and an integration time of 40 μs.
The activity of the active substances is calculated in relation to these 0% and 100%.
Molecule `CC(C)N1CCC(c2nc3cc(-c4ccc(F)cc4Cl)nc(N4CCCC(Nc5ccc(C(=O)C(F)(F)F)c(N)n5)C4)n3n2)CC1` (racemic) [Example 13, 1-{2-Amino-6-[(1-{7-(2-chloro-4-fluorophenyl)-2-[1-(propan-2-yl)piperidin-4-yl][1,2,4]-triazolo[1,5-c]pyrimidin-5-yl}piperidin-3-yl)amino]pyridin-3-yl}-2,2,2-trifluoroethanone] showed an IC50 of 4 nM.
For `CC(C)N1CCC(c2nc3cc(-c4ccc(F)cc4Cl)nc(N4CCCC(Nc5ccc(C(=O)C(F)(F)F)c(N)n5)C4)n3n2)CC1` (racemic) [Example Ent-A-13, 1-{2-Amino-6-[(1-{7-(2-chloro-4-fluorophenyl)-2-[1-(propan-2-yl)piperidin-4-yl][1,2,4]-triazolo[1,5-c]pyrimidin-5-yl}piperidin-3-yl)amino]pyridin-3-yl}-2,2,2-trifluoroethanone] the value was 2 nM.
Molecule `CC(C)N1CCC(c2nc3cc(-c4ccc(Cl)cc4Cl)nc(NCCNc4ccc(C(=O)C(F)(F)F)c(N)n4)n3n2)CC1` [Example 1, 1-(2-Amino-6-{[2-({7-(2,4-dichlorophenyl)-2-[1-(propan-2-yl)piperidin-4-yl][1,2,4]triazolo[1,5-c]-pyrimidin-5-yl}amino)ethyl]amino}pyridin-3-yl)-2,2,2-trifluoroethanone] yielded an IC50 of 15 nM.
In turn, `CC(C)N1CCC(c2nc3cc(-c4ccc(Cl)cc4Cl)nc(N4CCCC(Nc5ccc(C(=O)C(F)(F)F)c(N)n5)C4)n3n2)CC1` (stereo not drawn) [Example 5, 1-{2-Amino-6-[(1-{7-(2,4-dichlorophenyl)-2-[1-(propan-2-yl)piperidin-4-yl][1,2,4]triazolo[1,5-c]-pyrimidin-5-yl}piperidin-3-yl)amino]pyridin-3-yl}-2,2,2-trifluoroethanone] showed an IC50 of 10 nM.
The molecule `Nc1nc(NCCNc2nc(-c3ccc(Cl)cc3Cl)cc3nc(C4CCN(CC5CC5)CC4)nn23)ccc1C(=O)C(F)(F)F` [Example 21, 1-(2-Amino-6-{[2-({2-[1-(cyclopropylmethyl)piperidin-4-yl]-7-(2,4-dichlorophenyl)-[1,2,4]triazolo[1,5-c]pyrimidin-5-yl}amino)ethyl]amino}pyridin-3-yl)-2,2,2-trifluoroethanone] showed a concentration for half-maximal inhibition (IC50) of 20 nM.
On to `Nc1nc(NCCNc2nc(-c3ccc(Cl)cc3Cl)cc3nc(C4CCN(CC(=O)O)CC4)nn23)ccc1C(=O)C(F)(F)F` [Example 23, (4-{5-[(2-{[6-Amino-5-(trifluoroacetyl)pyridin-2-yl]amino}ethyl)amino]-7-(2,4-dichlorophenyl)-[1,2,4]triazolo[1,5-c]pyrimidin-2-yl}piperidin-1-yl)acetic acid], for which the IC50 was 9 nM.
